Values joined by “and” are separate entries in the source; they are usually repeats but may differ in a detail not shown here. Identical values can stand only once.
Assays:
[1] = system: OIR mice; experiment: Retinal NV in the oxygen-induced retinopathy (OIR) mouse model; assay type: in vivo; parameters: Figure 14 C (retinal NV, OIR) / Figure 14 E (retinal NV, OIR): unit not given here
Excerpt: To characterize the contribution of these other HIF-regulated angiogenic factors to the promotion of ischemia-driven retinal NV in vivo, we used the classic oxygen-induced retinopathy (OIR) model characterized by Smith and colleagues ([35]). In stage 1 of this model, P7 pups are exposed to hyperoxia (75% O2) for 5 consecutive days (P7–P12), resulting in obliteration of the posterior retinal vasculature. In stage 2, pups (at P12) are returned to room air (21% O2). The resulting relative ischemia promotes the expression of angiogenic mediators that stimulate the development of retinal NV (peaking at P17; Figure 2A). […]
Animal studies. Eight-week-old pathogen-free female C57BL/6 mice were obtained from The Jackson Laboratory (JAX). Timed pregnant C57BL/6 mice were obtained from Charles River Laboratories. Mice heterozygous for HIF-1α have been previously described (2). Mice heterozygous for HIF-2α (strain number: 003266; common name: EPAS1 KO) were purchased […]
OIR mouse model. OIR experiments were performed as previously described (1, 3). Briefly, C57BL/6 mice were placed in 75% O2 on P7. On P12, the mice were returned to room air and were […]
(or vehicle) by intravitreal injection. Mice with body weight less than 6 g at P17 were excluded […]
from analysis. Data were collected from both males and females and the results were combined since there was no apparent difference between sexes. Representative images for selected time points from a minimum of three independent experiments are shown. Data from 3-8 pups were obtained at each time point. […]
Intraperitoneal (IP) injections. […]
intraperitoneally using an insulin syringe in OIR pups. […]
the peritoneal cavity of neonatal C57BL/6 mice and STZ mice at indicated times, and the retinal vasculature and lysates for WB and qPCR were assessed at P17.
Intraocular injections. Intravitreal injections were performed with a PLI-100A Pico-liter Microinjector (Warner Instruments, Harvard Bioscience) using pulled-glass micropipettes. Each micropipette was calibrated to deliver a 1 μl volume on depression of a foot switch. The mice were anesthetized with a ketamine (100 mg/kg) and xylazine (5mg/kg) mixture, and under a dissecting microscope, the sharpened tip of the micropipette was passed through the sclera just posterior to the limbus into the vitreous cavity and the foot switch was depressed, which caused fluid to […]
penetrate into the vitreous space. […]
mice for vascular permeability test, retinal vasculature, and lysates for WB and qPCR analysis.
Immunoﬂuorescence assays. Details for antibodies are provided in Supplemental Table 1.
Immunofluorescence assays in retinal organoids and mouse retinal tissues were performed as previously described (4). Briefly, mice were sacrificed using CO2 asphyxiation, and the eyes were enucleated and fixed with a solution of 4% paraformaldehyde in PBS (Thermo Scientific™) for two hours at RT, followed by washing with PBS for 10 minutes in a shaker. Retinas were isolated and incubated in 0.5% BSA solution overnight at 4 °C. Retinas were then washed with PBS 3 times for 10 minutes in the shaker and stained with isolectin B4 (Invitrogen; 1:200 dilution in PBS) overnight at 4 °C. After washing 3 times for 10 minutes each in the shaker, the retinas were mounted. Images were captured with Zeiss fluorescent microscope. Eight fields per eye (2 fields per petal) including area of neovascularization were selected and fluorescence intensity was measured by ImageJ software. […]
The eyes were enucleated and immediately immersed in 4% (wt/vol) paraformaldehyde for 2 hours at room temperature. Retinas were isolated and wholemounts prepared on clean glass slides and mounted vitreous side up under coverslips with antifade medium (Vectashield; Vector Laboratories, Burlingame, CA). Images were captured by Zeiss fluorescent microscope or confocal microscopy and fluorescence was quantified by the image J software (National Institutes

[2] = system: differentially expressed genes (DEGs) in OIR mice; experiment: Bulk RNA-Seq of neurosensory retina of OIR mice; assay type: in vivo, mouse
Excerpt: Bulk RNAseq. P17 mouse pups from non-OIR (control), OIR injected with DMSO (vehicle) at P12 […]
enucleated, and their retinas separated from the RPE/choroid. Total RNA was isolated using miRNeasy mini kit (QIAGEN). RNA was quantified using Nanodrop (ND-1000 spectrophotometer; Thermo Scientific). The RNA samples were sequenced by Novogene […]
Raw data (fastq files), data quality control, and genome alignment were generated by Novogene company. DESeq2 (6) was used for differentially expressed genes (DEG) analysis. Genes with adjusted P < 0.05 and log2 fold change > 1 were identified as DEGs. Normalized counts were used to produce clustering heatmaps and “complete” was the default method in the clustering analysis.
Gene Ontology (GO) analysis (biological process) was done using DAVID Bioinformatics Resources (7, 8). FDR < 0.05 was used as the threshold for enriched biological process. […]

[3] = system: HUVECs; experiment: qPCR of VEGF, ANGPTL4, ANGPT2, PTPRB, SERPINE1 mRNA in hypoxic HUVECs; assay type: cell-based, human; settings: for Angptl4 mRNA / Vegfa mRNA: HUVEC 16HRS, Figure 8D; for Angptl4 mRNA / Vegfa mRNA / Angpt2 mRNA / Ptprb mRNA / Serpine1 mRNA: replicates; for Angpt2 mRNA / Ptprb mRNA / Serpine1 mRNA: HUVEC, Figure 8E
Experimental: MIO-M1, HUVECs, and ARPE19 cells were cultured in DMEM with 10% (vol/vol) FBS (Quality Biological) and 1% penicillin/streptomycin (Cellgro). A hypoxic chamber (Coy Laboratory Product Inc.; Two Glove Model) with 5% CO2, 94% N2, and 1% O2 gas concentration at 37°C was used to culture hypoxic cells. The control cells were cultured in an incubator maintained at 37°C, with 21% O2 and 5% CO2. […] Aflibercept was obtained from the Johns Hopkins University Pharmacy. […]
Reverse transcription and quantitative real-time PCR. Total RNA was isolated from cultured cells or retinas with PureLinkTM RNA Mini Kit (Invitrogen #12183025), and cDNA was prepared with MuLV Reverse Transcriptase (Applied Biosystems). Quantitative real-time PCR was performed with Power SYBR Green PCR Master Mix (Applied Biosystems) and MyiQ Real-Time PCR Detection System (Bio-Rad). Normalization was done using cyclophilin A for mouse tissue and human cell lines. Primers are listed in Supplemental Table 2. […]

[4] = OIR mice, Figure 10E, individual values
[5] = OIR mice P17, single intraocular 32-134D 70 ng/μL at P12
[6] = HUVECs, hypoxia 16 hours, 32-134D 10 μM

Brc1ccc2c(-c3csc(-c4c[nH]c5c(Br)cccc45)n3)c[nH]c2c1 [32-134D, 4-(6-bromo-1H-indol-3-yl)-2-(7-bromo-1H-indol-3-yl)thiazole]
retinal NV in OIR mice (in words) ([1]; 5 consecutive days of i.p. injections 20 mg/kg 32-134D): marked reduction in retinal NV
Figure 14 C (retinal NV, OIR) ([1]; 14ng intraocular, individual values): 3.954 and 13.1715 and 11.5498 and 7.756 and 10.0719 and 10.2983
Figure 14 C (retinal NV, OIR) ([1]; 70ng intraocular, individual values): 3.009 and 6.226 and 3.283 and 2.049 and 6.5224 and 7.021
Figure 14 E (retinal NV, OIR) ([1]; Figure 14E, 280ng intraocular, individual values): 3.652 and 2.167 and 0.762 and 1.534 and 2.454 and 1.3869
avascular area (%) [1, 4]: 39.7919% and 29.3948% and 27.2246% and 38.1203% and 35.7742% and 31.6081% and 33.2821% and 34.1%
neovascular area (%) [1, 4]: 6.529% and 6.16% and 5.906% and 5.171% and 3.4% and 5.22% and 4.584% and 1.45%
inhibition of retinal NV at P17 ([1]; OIR mice, single intraocular injection 32-134D 14 ng at P12): ~75%
inhibition of retinal NV at P17 ([1]; OIR mice, single intraocular injection 32-134D 280 ng at P12): approximately 85%
reduction in downregulated DEGs [2, 5]: 93%
reduction in upregulated DEGs [2, 5]: 71%
upregulated DEGs compared with non-OIR (control) mice ([2]; OIR mice P17, single intraocular 32-134D 70 ng/μL at P12, 250 in untreated OIR): 73
downregulated DEGs compared with non-OIR (control) mice ([2]; OIR mice P17, single intraocular 32-134D 70 ng/μL at P12, 768 in untreated OIR): 52
top 37 upregulated DEGs of 4 biological functions (inflammation, angiogenesis, hypoxia, vasculogenesis) ([2]; OIR mice, 32-134D intraocular): normalization
Angptl4 mRNA ([3]; 1% O2+32-134D 1μM): 23.6548 and 19.8329 and 22.215
Vegfa mRNA ([3]; 1% O2+32-134D 1μM): 3.163 and 3.148 and 2.936
Angptl4 mRNA ([3]; 1% O2+32-134D 10μM): 13.1074 and 12.3148 and 11.0174
Vegfa mRNA ([3]; 1% O2+32-134D 10μM): 2.892 and 2.5719 and 2.682
Angpt2 mRNA ([3]; 1% O2+32-134D 1μM): 1.029 and 1.541 and 1.067
Ptprb mRNA ([3]; 1% O2+32-134D 1μM): 1.641 and 1.627 and 1.638
Serpine1 mRNA ([3]; 1% O2+32-134D 1μM): 2.465 and 2.4817 and 2.486
Angpt2 mRNA ([3]; 1% O2+32-134D 10μM): 1.092 and 1.046 and 0.8708
Ptprb mRNA ([3]; 1% O2+32-134D 10μM): 1.169 and 1.1917 and 1.0627
Serpine1 mRNA ([3]; 1% O2+32-134D 10μM): 2.072 and 2.145 and 2.576
hypoxia-increased ANGPT2 mRNA (in words) [3, 6]: inhibited
hypoxia-increased PTPRB mRNA (in words) [3, 6]: inhibited

— publication PMC10313368 (The Journal of Clinical Investigation, 2023)
